Assay results published in US20250163057A1, “DCN-1 MODULATING COMPOUNDS AND METHODS OF USE THEREOF” (Cellarity, Inc., priority 2023, published 2025).
Where two headings read alike, the source gives them in different places.

Experiments:
[1] = tested on: Cullin-3 (CUL3) neddylation; assay: AlphaLISA assay for Cullin-3 (CUL3) neddylation in TF 1 cells; type: cell-based; conditions: 3 hours treatment
Summary of the method: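 TF 1 cells in unsupplemented IMDM treated with compound concentrations for 3 h, then lysed. CUL3 neddylation detected by AlphaLISA (biotinylated anti-NEDD8, anti-CUL3 acceptor beads overnight, streptavidin donor beads 1 h); normalized to vehicle (0%) and 1 μM DI-1548 (100%), IC50 from Hill fits.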

[2] = biological target: DCN1 (DCUND1) protein PONY domain (Homo sapiens (Human), UniProt Q96GG9); assay: TR-FRET assay, DCN1 binding with FAM-labeled probe
Summary of the method: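 Biotinylated DCN1 PONY domain, labeled with streptavidin-Tb, was competed against a FAM-labeled non-covalent DCN1 inhibitor probe in buffer with TritonX and 200 mM NaCl. Conditions were 5 nM DCN1 with 20 nM FAM-probe, or 0.31 nM DCN1 with 100 nM FAM-plus 800 nM unlabeled probe. The TR-FRET ratio was read at 1, 5 and 24 h (0.1% DMSO).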

DCN1 protein = DCN1 protein (Homo sapiens (Human), UniProt Q96GG9); assay: Intact Protein MS Analysis with the RapidFire-TOF System (covalent adduct formation); type: binding; conditions: MS Emax; 400 nM DCN1, 3 hours at room temperature
Summary of the method: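 Tag-cleaved human DCN1 (400 nM) expressed in E. coli, in 25 mM Tris-HCl, 200 mM NaCl, 1 mM DTT, was incubated with 11 compound concentrations for 3 h at room temperature and quenched with 0.2% formic acid. Intact-protein Q-TOF MS with deconvolution detected the compound adduct mass.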

[3] = 24 hr after treatment with compound, read-out: TR FRET IC50 24 hr
[4] = read-out: TR FRET IC50 1 hr, 1 hr after treatment with compound
[5] = TR FRET IC50 1 hr (nM), 1 hr after treatment with compound

Sequence of DCN1 protein (Q96GG9 whole entry): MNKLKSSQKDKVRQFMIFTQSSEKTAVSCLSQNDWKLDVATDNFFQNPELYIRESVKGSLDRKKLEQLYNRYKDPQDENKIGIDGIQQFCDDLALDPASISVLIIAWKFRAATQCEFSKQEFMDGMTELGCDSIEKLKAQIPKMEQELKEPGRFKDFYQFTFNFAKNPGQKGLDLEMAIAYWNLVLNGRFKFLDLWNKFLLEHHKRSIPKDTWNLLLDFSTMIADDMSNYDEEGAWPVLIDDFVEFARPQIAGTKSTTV
Sequence of DCN1 (DCUND1) protein PONY domain (Q96GG9 60-248): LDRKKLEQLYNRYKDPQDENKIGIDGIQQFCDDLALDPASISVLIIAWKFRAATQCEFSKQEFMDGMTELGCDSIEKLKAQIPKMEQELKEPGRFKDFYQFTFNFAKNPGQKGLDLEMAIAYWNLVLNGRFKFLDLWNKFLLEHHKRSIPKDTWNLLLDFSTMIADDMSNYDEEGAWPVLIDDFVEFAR

## C=C(CN1C[C@@H]2C[C@H]1CO2)C(=O)NCc1nn(-c2ccccc2)c2c1[C@H](c1ccc(F)cc1)[C@H](NC(=O)c1cccc(C(F)(F)F)c1)C(=O)N2CC (mixture of isomers) [Compound I-12]
[1]; Homo sapiens, TF-1, 3 h
  IC50: ≤ 100 nM
[2]; [3]
  IC50: ≤ 200 nM
[2]; [4]
  IC50: ≤ 200 nM
DCN1 protein
  % Adduct Formation: +++ (MS Emax % adduct formation greater than 80.0 and less than or equal to 100.0)

## CCN1C(=O)[C@@H](NC(=O)c2cccc(C(F)(F)F)c2)[C@@H](c2ccc(F)cc2)c2c([C@@H](CN(C)C)NC#N)nn(-c3ccccc3)c21 (mixture of isomers) [Compound I-272]
[1]; Homo sapiens, TF-1, 3 h
  IC50: ≤ 100 nM
[2]; [3]
  IC50: ≤ 200 nM
[2]; [4]
  IC50: ≤ 200 nM
DCN1 protein
  % Adduct Formation: +++ (MS Emax % adduct formation greater than 80.0 and less than or equal to 100.0)

## CCN1C(=O)[C@@H](NC(=O)c2cccc(C(F)(F)F)c2)[C@@H](c2ccc(F)cc2)c2c(C(=O)N3CCOC[C@H]3C#N)nn(-c3ccccc3)c21 (mixture of isomers) [Compound I-295]
[1]
  IC50: ≤ 100 nM
[2]; [3]
  IC50: ≤ 200 nM
[2]; [5]
  IC50: 1000 to 3000 nM
DCN1 protein
  % Adduct Formation: +++ (MS Emax % adduct formation greater than 80.0 and less than or equal to 100.0)

## CCN1C(=O)[C@@H](NC(=O)c2cccc(C(F)(F)F)c2)[C@@H](c2ccc(F)cc2)c2c(C(=O)N3CCOC[C@@H]3C#N)nn(-c3ccccc3)c21 (mixture of isomers) [Compound I-297]
[1]; Homo sapiens, TF-1, 3 h
  IC50: ≤ 100 nM
[2]; [3]
  IC50: ≤ 200 nM
[2]; [5]
  IC50: 1000 to 3000 nM
DCN1 protein
  % Adduct Formation: +++ (MS Emax % adduct formation greater than 80.0 and less than or equal to 100.0)

## CCN1C(=O)[C@@H](NC(=O)c2cccc(C(F)(F)F)c2)[C@@H](c2ccc(F)cc2)c2c(C(=O)N(C)[C@@H](C#N)CCN3CC4CCC(C3)O4)nn(-c3ccccc3)c21 (mixture of isomers) [Compound I-319]
[1]; Homo sapiens, TF-1, 3 h
  IC50: ≤ 100 nM
[2]; [3]
  IC50: ≤ 200 nM
[2]; [5]
  IC50: 1000 to 3000 nM
DCN1 protein
  % Adduct Formation: ++ (MS Emax % adduct formation greater than 30.0 and less than or equal to 80.0)

## CCN1C(=O)[C@@H](NC(=O)c2cccc(C(F)(F)F)c2)[C@@H](c2ccc(F)cc2)c2c(C(=O)N(CC#N)CCN3CC4CC(C3)O4)nn(-c3ccccc3)c21 (mixture of isomers) [Compound I-322]
[1]; Homo sapiens, TF-1, 3 h
  IC50: ≤ 100 nM
[2]; [3]
  IC50: ≤ 200 nM
[2]; [4]
  IC50: ≤ 200 nM
DCN1 protein
  % Adduct Formation: +++ (MS Emax % adduct formation greater than 80.0 and less than or equal to 100.0)

## CCN1C(=O)[C@@H](NC(=O)c2cccc(C(F)(F)F)c2)[C@@H](c2ccc(F)cc2)c2c(C(=O)N(CC#N)CCN3CC4CCC(C3)O4)nn(-c3ccccc3)c21 (mixture of isomers) [Compound I-324]
[1]; Homo sapiens, TF-1, 3 h
  IC50: ≤ 100 nM
[2]; [3]
  IC50: ≤ 200 nM
[2]; [5]
  IC50: 200 to 1000 nM
DCN1 protein
  % Adduct Formation: +++ (MS Emax % adduct formation greater than 80.0 and less than or equal to 100.0)

## CCN1C(=O)[C@@H](NC(=O)c2cccc(C(F)(F)F)c2)[C@@H](C2CC2)c2c(C(=O)N(C)C(C)C#N)nn(C3CCOCC3)c21 (mixture of isomers) [Compound I-349]
[1]; Homo sapiens, TF-1, 3 h
  IC50: ≤ 100 nM
[2]; [3]
  IC50: ≤ 200 nM
[2]; [4]
  IC50: ≤ 200 nM
DCN1 protein
  % Adduct Formation: +++ (MS Emax % adduct formation greater than 80.0 and less than or equal to 100.0)

## N#C[C@@H]1C[C@H]2C[C@H]2N1C(=O)c1nn(C2CCOCC2)c2c1[C@H](C1CC1)[C@H](NC(=O)c1cccc(C(F)(F)F)c1)C(=O)N2 (mixture of isomers) [Compound I-385]
[1]; Homo sapiens, TF-1, 3 h
  IC50: ≤ 100 nM
[2]; [3]
  IC50: ≤ 200 nM
[2]; [5]
  IC50: 1000 to 3000 nM
DCN1 protein
  % Adduct Formation: +++ (MS Emax % adduct formation greater than 80.0 and less than or equal to 100.0)

## C=C(CN1CCN(C2COC2)CC1)C(=O)NCc1nn(-c2ccccc2)c2c1[C@H](c1ccc(F)cc1)[C@H](NC(=O)c1cccc(C(F)(F)F)c1)C(=O)N2CC (racemic) [Compound I-57]
[1]; Homo sapiens, TF-1, 3 h
  IC50: ≤ 100 nM
[2]; [3]
  IC50: ≤ 200 nM
[2]; [4]
  IC50: ≤ 200 nM
DCN1 protein
  % Adduct Formation: ++ (MS Emax % adduct formation greater than 30.0 and less than or equal to 80.0)

## C=C(CN1CCOCC1)C(=O)NCc1nn(-c2ccccc2)c2c1[C@H](c1ccc(F)cc1)[C@H](NC(=O)c1cccc(C(F)(F)F)c1)C(=O)N2CC (racemic) [Compound I-67]
[1]; Homo sapiens, TF-1, 3 h
  IC50: 100 to 1000 nM
[2]; [3]
  IC50: ≤ 200 nM
[2]; [4]
  IC50: ≤ 200 nM
DCN1 protein
  % Adduct Formation: + (MS Emax % adduct formation greater than or equal to 0.0 and less than or equal to 30.0)

## CCN1C(=O)[C@@H](NC(=O)c2cccc(C(F)(F)F)c2)[C@@H](c2ccc(F)cc2)c2c(NC(=O)CC#N)nn(-c3ccccc3)c21 (racemic) [Compound I-80]
[1]; Homo sapiens, TF-1, 3 h
  IC50: ≤ 100 nM
[2]; [3]
  IC50: 1000 to 3000 nM
[2]; [5]
  IC50: 1000 to 3000 nM
DCN1 protein
  % Adduct Formation: + (MS Emax % adduct formation greater than or equal to 0.0 and less than or equal to 30.0)

## CCN1C(=O)[C@@H](NC(=O)c2cccc(C(F)(F)F)c2)[C@@H](c2ccc(F)cc2)c2c(C(=O)N(CC#N)CCCN(C)C)nn(-c3ccccc3)c21 (racemic) [Compound I-271]
[1]; Homo sapiens, TF-1, 3 h
  IC50: ≤ 100 nM
[2]; [3]
  IC50: ≤ 200 nM
[2]; [4]
  IC50: ≤ 200 nM
DCN1 protein
  % Adduct Formation: +++ (MS Emax % adduct formation greater than 80.0 and less than or equal to 100.0)

## CCN1C(=O)[C@@H](NC(=O)c2cccc(C(F)(F)F)c2)[C@@H](c2ccc(F)cc2)c2c(C(=O)N(C)CC#N)nn(-c3ccccc3)c21 (racemic) [Compound I-282]
[1]
  IC50: ≤ 100 nM
[2]; [3]
  IC50: ≤ 200 nM
[2]; [4]
  IC50: ≤ 200 nM
DCN1 protein
  % Adduct Formation: +++ (MS Emax % adduct formation greater than 80.0 and less than or equal to 100.0)

## CCN1C(=O)[C@@H](NC(=O)c2cccc(C(F)(F)F)c2)[C@@H](c2ccc(F)cc2)c2c(C(=O)N(CC#N)CCN3CCOCC3)nn(-c3ccccc3)c21 (racemic) [Compound I-320]
[1]; Homo sapiens, TF-1, 3 h
  IC50: ≤ 100 nM
[2]; [3]
  IC50: ≤ 200 nM
[2]; [4]
  IC50: ≤ 200 nM
DCN1 protein
  % Adduct Formation: +++ (MS Emax % adduct formation greater than 80.0 and less than or equal to 100.0)

## CCN1C(=O)[C@@H](NC(=O)c2cccc(C(F)(F)F)c2)[C@@H](c2ccc(F)cc2)c2c(C(=O)N(CC#N)CCN(C)C3COC3)nn(-c3ccccc3)c21 (racemic) [Compound I-321]
[1]; Homo sapiens, TF-1, 3 h
  IC50: ≤ 100 nM
[2]; [3]
  IC50: ≤ 200 nM
[2]; [4]
  IC50: ≤ 200 nM
DCN1 protein
  % Adduct Formation: +++ (MS Emax % adduct formation greater than 80.0 and less than or equal to 100.0)

## CCN1C(=O)[C@@H](NC(=O)c2cccc(C(F)(F)F)c2)[C@@H](c2ccc(F)cc2)c2c(C(=O)N(C)[C@@H](C#N)CCO)nn(-c3ccccc3)c21 (relative stereo) [Compound I-290, (4S,5S)—N-[(1R*)-1-cyano-3-hydroxypropyl]-7-ethyl-4-(4-fluorophenyl)-N-methyl-6-oxo-1-phenyl-5-[3-(trifluoromethyl)benzamido]-4H,5H-pyrazolo[3,4-b]pyridine-3-carboxamide]
[1]; Homo sapiens, TF-1, 3 h
  IC50: ≤ 100 nM
[2]; [3]
  IC50: ≤ 200 nM
[2]; [5]
  IC50: ≤ 200 nM
DCN1 protein
  % Adduct Formation: + (MS Emax % adduct formation greater than or equal to 0.0 and less than or equal to 30.0)

## CCN1C(=O)[C@@H](NC(=O)c2cccc(C(F)(F)F)c2)[C@@H](c2ccc(F)cc2)c2c(C(=O)N(C)[C@H](C#N)CCO)nn(-c3ccccc3)c21 (relative stereo) [Compound I-301, (4S,5S)—N-[(1S*)-1-cyano-3-hydroxypropyl]-7-ethyl-4-(4-fluorophenyl)-N-methyl-6-oxo-1-phenyl-5-[3-(trifluoromethyl)benzamido]-4H,5H-pyrazolo[3,4-b]pyridine-3-carboxamide]
[1]; Homo sapiens, TF-1, 3 h
  IC50: ≤ 100 nM
[2]; [3]
  IC50: ≤ 200 nM
[2]; [5]
  IC50: ≤ 200 nM
DCN1 protein
  % Adduct Formation: ++ (MS Emax % adduct formation greater than 30.0 and less than or equal to 80.0)

## CCN1C(=O)[C@@H](NC(=O)c2cccc(C(F)(F)F)c2)[C@@H](c2ccc(F)cc2)c2c(C(=O)N(C)[C@H](C)C#N)nn(-c3ccccc3)c21 (single isomer, unassigned) [Compound I-289, (4S,5S)—N—((R*)-1-cyanoethyl)-7-ethyl-4-(4-fluorophenyl)-N-methyl-6-oxo-1-phenyl-5-(3-(trifluoromethyl)benzamido)-4,5,6,7-tetrahydro-1H-pyrazolo[3,4-b]pyridine-3-carboxamide]
[1]; Homo sapiens, TF-1, 3 h
  IC50: ≤ 100 nM
[2]; [3]
  IC50: ≤ 200 nM
[2]; [5]
  IC50: ≤ 200 nM
DCN1 protein
  % Adduct Formation: +++ (MS Emax % adduct formation greater than 80.0 and less than or equal to 100.0)

## CCN1C(=O)[C@@H](NC(=O)c2cccc(C(F)(F)F)c2)[C@@H](c2ccc(F)cc2)c2c(CN(C)C(=O)[C@H](C)Cl)nn(-c3ccccc3)c21 (stereo in doubt) [Compound I-30]
[2]; [3]
  IC50: 1000 to 3000 nM
[2]; [4]
  IC50: > 3000 nM
DCN1 protein
  % Adduct Formation: + (MS Emax % adduct formation greater than or equal to 0.0 and less than or equal to 30.0)

## CCN1C(=O)[C@@H](NC(=O)c2cccc(C(F)(F)F)c2)[C@@H](c2ccc(F)cc2)c2c(CN(C)C(=O)[C@H](C)Cl)nn(-c3ccccc3)c21 (stereo in doubt) [Compound I-33]
[2]; [3]
  IC50: 1000 to 3000 nM
[2]; [5]
  IC50: 1000 to 3000 nM
DCN1 protein
  % Adduct Formation: + (MS Emax % adduct formation greater than or equal to 0.0 and less than or equal to 30.0)

## CCN1C(=O)[C@@H](NC(=O)c2cccc(C(F)(F)F)c2)[C@@H](c2ccc(F)cc2)c2c(C(=O)N3CCCC[C@@H]3C#N)nn(-c3ccccc3)c21 [Compound I-121]
[2]; [3]
  IC50: ≤ 200 nM
[2]; [4]
  IC50: ≤ 200 nM
DCN1 protein
  % Adduct Formation: ++ (MS Emax % adduct formation greater than 30.0 and less than or equal to 80.0)
